For one test, the system named is autophagy in HOS cells. The experiment in a line: High Content Screening Autophagy Assay (GFP-LC3 foci). It is filed as cell-based. As to conditions: Homo sapiens; HOS cells expressing GFP-LC3; autophagy activated with KU-0063794 500 nM plus Bafilomycin A1 5 nM; 6 hours; foci area per cell; read-out: Median IC50 μM Cellular assay. The method, then:
High Content Screening Autophagy Assay
Human osteosarcoma cells (HOS) stably expressing a Green Fluorescent Protein (GFP) tagged LC3 (GFP-LC3) were used to determine the inhibitory effect on autophagy of proprietary compounds. For that purpose, autophagy was activated by using the mTOR inhibitor KU-0063794 at 500 nM in the presence of Bafilomycin A1 (Sigma-Aldrich) at 5 nM. Shortly, cells were plated overnight in clear bottom 96-well plates in DMEM-High Modified media (Hi-Clone Cat #SH30285.01). At the start of the experiment, the media was removed and replaced with fresh media containing the mTOR inhibitor, Bafilomycin A1 and the vehicle or a test compound as indicated. After 6 hours the media was removed, cells were washed twice with ice-cold phosphate buffered saline (PBS) and fixed with 4% paraformaldehyde for 20 minutes at room temperature. Then the cells were washed twice with ice-cold PBS before adding Hoechst 33342 at 1 μg/ml in PBS for nuclear staining. After incubation overnight at 4° C., cells were washed once with PBS to remove the excess of dye and 100 μl of PBS was added to each well. Images were acquired at 20× magnification, 6 images per well, using the ImageXpress automated microscope (Molecular Devices Inc.) and analyzed with MetaXpress software to identify LC3-GFP foci. Foci area per cell values were used to generate dose response curves and IC50 calculated using non-linear fitting analysis in GraphPad Prism software.
The results of the assay are shown in Table 2 (Median IC50 μM Cellular assay).

In the next test the target is Vps34 enzyme (Homo sapiens (Human), UniProt Q8NEB9). Nature of the test: Vps34 Biochemical Assay (Adapta TR-FRET). The note with it: 20 μM ATP and 200 μM PI:PS in substrate mix, 1 h at room temperature, read-out: Median IC50 μM Adapta. The method, then:
Dilution series of compounds of the invention were prepared in DMSO at 100 times the final assay concentration (n1=n0/3 in 10 points). The compounds were further diluted to 4 times the assay concentration in assay buffer (Life technologies buffer Q, PV5125, diluted 5 times supplemented with 2 mM DTT and 2 mM MnCl2). 2.5 μl of the diluted compounds were added to a 384 well assay plate followed by 2.5 μl of 16.5 nM Vps34 enzyme (Life technologies, PV5126). Enzyme and compounds were preincubated at rt for 15 min. Then 5 μl of substrate mix containing 20 μM ATP (Life technologies, PV3227) and 200 μM PI:PS substrate (Life technologies, PV5122) in assay buffer was added to the wells containing compound and enzyme and mixing was performed by pipetting several times. The reaction was incubated at room temperature for 1 h. Then 5 μl stop-detection mix, prepared as described in the adapta kinase assay kit instructions (Life technologies, PV5099) containing Adapta Eu-anti-ADP antibody (2.3 nM), Alexa Fluor 647 ADP tracer (9 nM) and EDTA (30 mM) in TR-FRET buffer, was added to quench the reaction. Mixing was performed by pipetting several times. The assay plate was then incubated at room temperature for 30 min and read with Artemis micro plate reader. Percent inhibition of the compounds as compared to DMSO treated control samples was calculated. By the use of Dotmatics software compound concentration versus percent inhibition was fitted to generate IC50 values.
In general terms: In TR-FRET formats the signal depends on donor and acceptor labels being close together.

The results in this text go back to patent US11077113B2, “6-aryl-4-morpholin-1-ylpyridone compounds useful for the treatment of cancer and diabetes” (priority 2016, dated 2021).

Sequence of Vps34 enzyme (Q8NEB9 whole entry): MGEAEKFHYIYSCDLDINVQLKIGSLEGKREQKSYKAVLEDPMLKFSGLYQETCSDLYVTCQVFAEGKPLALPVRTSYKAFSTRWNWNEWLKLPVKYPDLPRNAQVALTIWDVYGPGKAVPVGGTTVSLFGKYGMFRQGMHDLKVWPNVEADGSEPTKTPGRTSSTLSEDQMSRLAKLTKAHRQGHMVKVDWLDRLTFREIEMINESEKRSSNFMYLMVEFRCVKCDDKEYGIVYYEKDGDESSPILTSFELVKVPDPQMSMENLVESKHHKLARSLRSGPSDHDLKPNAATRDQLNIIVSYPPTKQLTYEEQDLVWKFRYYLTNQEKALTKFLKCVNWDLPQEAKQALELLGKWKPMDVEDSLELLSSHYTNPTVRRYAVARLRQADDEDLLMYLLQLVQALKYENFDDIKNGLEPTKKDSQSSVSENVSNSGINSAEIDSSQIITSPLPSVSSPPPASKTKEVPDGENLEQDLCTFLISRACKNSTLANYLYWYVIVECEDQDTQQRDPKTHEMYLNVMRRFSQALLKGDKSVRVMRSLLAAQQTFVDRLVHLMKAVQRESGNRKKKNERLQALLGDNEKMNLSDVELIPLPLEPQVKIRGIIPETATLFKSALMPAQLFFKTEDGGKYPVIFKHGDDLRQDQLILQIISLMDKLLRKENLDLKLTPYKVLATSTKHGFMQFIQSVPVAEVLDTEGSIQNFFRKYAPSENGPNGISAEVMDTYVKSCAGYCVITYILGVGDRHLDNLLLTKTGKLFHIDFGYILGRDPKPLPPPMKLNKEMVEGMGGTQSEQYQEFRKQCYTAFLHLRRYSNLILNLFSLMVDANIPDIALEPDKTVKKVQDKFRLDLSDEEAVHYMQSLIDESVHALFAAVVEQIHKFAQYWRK

In general, IC50 refers to the point on the concentration scale where inhibition reaches its midpoint. `O=c1cc(N2CCOCC2)cc(-c2ccccc2Cl)[nH]1` [Example 1, 6-(2-chlorophenyl)-4-morpholino-1H-pyridin-2-one]: the IC50 in the test with autophagy in HOS cells was 2 µM; on Vps34 enzyme, 0.03 µM. As for `Cn1c(-c2ccccc2Cl)cc(N2CCOCC2)cc1=O` [Example 2, 6-(2-chlorophenyl)-1-methyl-4-morpholino-pyridin-2-one], the results for the IC50 with autophagy in HOS cells and on Vps34 enzyme were 3 µM and 0.05 µM, respectively. Taken in the same sequence, the figures for `CC1COCCN1c1cc(-c2ccccc2Cl)[nH]c(=O)c1` (stereo not drawn) [Example 3, 6-(2-chlorophenyl)-4-(3-methylmorpholin-4-yl)-1H-pyridin-2-one] were 0.7 µM and 0.01 µM. In the case of `CC1COCCN1c1cc(-c2ccccc2Cl)n(C)c(=O)c1` (stereo not drawn) [Example 4, 6-(2-chlorophenyl)-1-methyl-4-(3-methylmorpholin-4-yl)pyridin-2-one], the values for the IC50 in the test on autophagy in HOS cells and at Vps34 enzyme were 1 µM and 0.02 µM, respectively. Regarding `Cc1ccncc1-c1cc(N2CCOCC2C)cc(=O)[nH]1` (stereo not drawn) [Example 5, 4-(3-methylmorpholin-4-yl)-6-(4-methyl-3-pyridyl)-1H-pyridin-2-one], the IC50 in the test with autophagy in HOS cells amounted to 14 µM; on Vps34 enzyme it was 0.1 µM. The like results for `CC1COCCN1c1cc(-c2cncnc2)[nH]c(=O)c1` (stereo not drawn) [Example 6, 4-(3-methylmorpholin-4-yl)-6-pyrimidin-5-yl-1H-pyridin-2-one] were, in that order, 14 µM and 1 µM.

Consider `CC1COCCN1c1cc(-c2ccccc2-c2ccccc2)[nH]c(=O)c1` (stereo not drawn) [Example 7, 4-(3-methylmorpholin-4-yl)-6-(2-phenylphenyl)-1H-pyridin-2-one], for which the IC50 at Vps34 enzyme is 0.06 µM.

As to `C[C@@H]1COCCN1c1cc(-c2cc(F)ccc2Cl)[nH]c(=O)c1` [Example 8, 6-(2-chloro-5-fluoro-phenyl)-4-[(3R)-3-methylmorpholin-4-yl]-1H-pyridin-2-one], the IC50 was 1 µM in the test with autophagy in HOS cells and 0.01 µM at Vps34 enzyme.

As to `Cc1ccccc1-c1cc(N2CCOC[C@H]2C)cc(=O)[nH]1` [Example 9, 4-[(3R)-3-methylmorpholin-4-yl]-6-(o-tolyl)-1H-pyridin-2-one], the IC50 on Vps34 enzyme was 0.03 µM.

In the case of `C[C@@H]1COCCN1c1cc(-c2cccnc2C(F)(F)F)[nH]c(=O)c1` [Example 10, 4-[(3R)-3-methylmorpholin-4-yl]-6-[2-(trifluoromethyl)-3-pyridyl]-1H-pyridin-2-one], the IC50 was 0.09 µM with autophagy in HOS cells and 0.02 µM at Vps34 enzyme.

As to `C[C@@H]1COCCN1c1cc(-c2ccccc2Cl)[nH]c(=O)c1` [Example 11, 6-(2-chlorophenyl)-4-[(3R)-3-methylmorpholin-4-yl]-1H-pyridin-2-one], the IC50 in the test with autophagy in HOS cells turned out to be 0.6 µM; at Vps34 enzyme, 0.007 µM. For the compound `C[C@@H]1COCCN1c1cc(-c2ccccc2C(F)(F)F)[nH]c(=O)c1` [Example 12, 4-[(3R)-3-methylmorpholin-4-yl]-6-[2-(trifluoromethyl)phenyl]-1H-pyridin-2-one], the IC50 in the test on autophagy in HOS cells was 0.6 µM; on Vps34 enzyme, 0.007 µM.

For the compound `C[C@@H]1COCCN1c1cc(-c2ccoc2)[nH]c(=O)c1` [Example 13, 6-(3-furyl)-4-[(3R)-3-methylmorpholin-4-yl]-1H-pyridin-2-one], on Vps34 enzyme, the IC50 turned out to be 0.2 µM. Still for that read-out and setting: with `Cc1cscc1-c1cc(N2CCOC[C@H]2C)cc(=O)[nH]1` [Example 14, 4-[(3R)-3-methylmorpholin-4-yl]-6-(4-methyl-3-thienyl)-1H-pyridin-2-one] the figure was 0.03 µM. The same measure, in the same setting: with `C[C@@H]1COCCN1c1cc(-c2ccccc2NS(C)(=O)=O)[nH]c(=O)c1` [Example 15, N-[2-[4-[(3R)-3-methylmorpholin-4-yl]-6-oxo-1H-pyridin-2-yl]phenyl]methanesulfonamide] the figure was 0.2 µM; with `Cc1ccc2ncccc2c1-c1cc(N2CCOC[C@H]2C)cc(=O)[nH]1` [Example 16, 4-[(3R)-3-methylmorpholin-4-yl]-6-(6-methyl-5-quinolyl)-1H-pyridin-2-one], 0.2 µM. Same read-out and setting: with `C[C@@H]1COCCN1c1cc(-c2ccc(-c3ccn[nH]3)cc2)[nH]c(=O)c1` [Example 17, 4-[(3R)-3-methylmorpholin-4-yl]-6-[4-(1H-pyrazol-5-yl)phenyl]-1H-pyridin-2-one] the figure was 0.2 µM.
